Experimental data taken from patent publication US20110112101A1, “TREATMENT FOR OCULAR-RELATED DISORDERS” (SANOFI-AVENTIS, priority 2009, published 2011).

Test system: laser induced plaque on the retina (model of wet AMD)
Experiment: laser induced model of macular degeneration in the rat
Assay type: in vivo
Conditions: for % Inhibition of Plaque: krypton laser injury of retina
Description: Several models of wet AMD are available in the rodent and rabbit. The pre-clinical efficacy of the compound of Formula I was assessed in a laser induced model of macular degeneration in the rat. In this model, injury is induced on the retina of the rat by a focused laser beam. This injury results in vascularization and inflammation, and the subsequent formation of a plaque on the retina that is associated with loss of vision. The ability of treatments with a compound of Formula Ito inhibit the size and thickness of such plaques serves as an indicator for the potential for the treatment of wet AMD patients. A krypton laser was used to irradiate the retina of a rat eye at 75 microns for 0.1 seconds, at each of 3-4 spots. From days 1 to 14, the irradiated rats were dosed twice a day with the compound of Formula I perorally (bid PO). Doses used were 3 mg/kg, 10 mg/kg, and 30 mg/kg body weight. An additional treatment group was given the vehicle for the oral compound, also bid PO administration. A positive control was used with 0.5 mg triamcinolone delivered to the intraocular subtendon. At 14 days after such irradiation, the rat was perfused with FITC-dextran (fluorescein isothiocyanate dextran) and the eyes were removed for evaluation. Evaluation was by fundoscopy and fluorescein angiography.

SMILES	% Inhibition of Plaque (3 mg/kg bid PO days 1 to 14, evaluated at 14 days)	% Inhibition of Plaque (10 mg/kg bid PO days 1 to 14, evaluated at 14 days)	% Inhibition of Plaque (30 mg/kg bid PO days 1 to 14, evaluated at 14 days)	plaque thickness (laser induced model, 30 and 10 mg/kg bid PO)	results compared with positive control triamcinolone (laser induced model, 30 and 10 mg/kg bid PO versus 0.5 mg triamcinolone)	% Inhibition of Plaque (positive control 0.5 mg delivered to the intraocular subtendon, evaluated at 14 days)
CCc1c(-c2ccc(C(C)(C)O)cc2)[nH]c2nccnc12 [compound of Formula I, 2-[4-(7-Ethyl-5H-pyrrolo[2,3-b]pyrazin-6-yl)-phenyl]-propan-2-ol]	12%	36%	33%	significantly reduced plaque thickness	significantly better	
C[C@]12C=CC(=O)C=C1CC[C@H]1[C@@H]3C[C@@H](O)[C@](O)(C(=O)CO)[C@@]3(C)C[C@H](O)[C@@]12F [triamcinolone, reference compound]						26%
